Assay results published in US6046218A, “Pyridine derivative and medicament containing the same as an effective ingredient” (SS Pharmaceutical Co., Ltd., priority 1996, dated 2000).
Structures can show the parent of a compound that is named as a salt.

Key:
IgM production = assay: Test 4 (comparison): inhibition of IgM production; assay type: in vivo, Balb/c mouse; conditions: 100 mg/kg orally once a day; for inhibition at 100 mg/kg: Mus musculus, po, Day 1 to Day 10, spleen cells, DNP-BSA 5 μg/ml, 24 hours, read-out: Inhibition rate of IgM production; for effects on the production of IgM: in words
Experimental: (§1) Test 4: Test on the inhibition of IgE production
(§2) To a Balb/c mouse, the DNP-labeled ascaris antigen (5 μg) and Alum (1 mg) were intraperitoneally administered on Day 1 and Day 6 to sensitize the mouse with the antibody. From Day 1 to Day 10, a medicament was orally administered at a dose of 100 mg/kg once a day. On Day 11, the mouse was subjected to splenectomy and the spleen so obtained was untangled into its cells. To 5×10^7 cells/ml of the spleen cells so obtained, DNP-BSA (5 μg/ml) was added, followed by incubation at 37° C. for 24 hours. After incubation, 100 μl of the supernatant were collected and subjected to the measurement an IgE measuring kit (Yamasa Co., Ltd.). In order to determine IgG1, IgG2a and IgM, the absorbance of the incubated supernatant was measured by the EIA method and provided for comparison. The inhibition rate of IgE production was calculated according to the below-described formula. Inhibition rates of the IgG1, IgG2a and IgM production were similarly calculated, respectively. [formula]

IgE production = assay: Test 4: inhibition of IgE production by spleen cells of orally treated sensitized mice; assay type: in vivo, Balb/c mouse; conditions: Mus musculus, po, 100 mg/kg orally once a day, Day 1 to Day 10, DNP-BSA 5 μg/ml, 24 hours, read-out: Inhibition rate of IgE production
Experimental: as §1, §2

IL-5 production = assay: Test 3: inhibition of IL-5 production in human PBMC stimulated with ConA; assay type: cell-based; conditions: 10^-6 M, 10 μg/ml ConA, 48 hours, read-out: Inhibition rate of IL-5 production
Summary of the method: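 Human PBMC from a normal volunteer, 1×10^6 cells/ml in AIM-V, stimulated with 10 μg/ml ConA alongside compound and incubated 48 h at 37 °C, 5% CO2. Supernatant IL-5 quantified by EIA; inhibition rate calculated from a formula.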

IgG1 production = assay: Test 4 (comparison): inhibition of IgG1 production; assay type: in vivo, Balb/c mouse; conditions: 100 mg/kg orally once a day; for inhibition at 100 mg/kg: Mus musculus, po, Day 1 to Day 10, spleen cells, DNP-BSA 5 μg/ml, 24 hours, read-out: Inhibition rate of IgG1 production; for effects on the production of IgG1: in words
Experimental: as §1, §2

IgG2a production = assay: Test 4 (comparison): inhibition of IgG2a production; assay type: in vivo, Balb/c mouse; conditions: 100 mg/kg orally once a day; for inhibition at 100 mg/kg: Mus musculus, po, Day 1 to Day 10, spleen cells, DNP-BSA 5 μg/ml, 24 hours, read-out: Inhibition rate of IgG2a production; for effects on the production of IgG2a: in words
Experimental: as §1, §2

IL-4 production = assay: Test 2: inhibition of IL-4 production in human T-cell strain ATL-16T(-) stimulated with PMA (Bio Source EIA); assay type: cell-based; conditions: ATL-16T(-) 5×10^5 cells/0.5 ml/well, 20 nM PMA, 48 hours, read-out: Inhibition rate of IL-4 production; for inhibition at 10 µM: 10^-5 M; for inhibition at 1 µM: 10^-6 M; for inhibition at 0.1 µM: 10^-7 M; for inhibition at 0.01 µM: 10^-8 M
Experimental: Test 2: Test on the inhibition of IL-4 production
Into individual wells of a 48-well microplate, the human T-cell strain ATL-16T(-) was poured at a concentration of 5×10^5 cells/0.5 ml/well (n=3), followed by the addition of a stimulator (20 nM of PMA) and a medicament at the same time. The resulting mixture was incubated in 5% CO2 at 37° C. for 48 hours. After incubation, 50 μl of the supernatant were collected and subjected to measurement by a human IL-4 EIA kit (BIO SOURCE, INC.). The inhibition rate was calculated according to the following formula. [formula]

CCOC(=O)CCCCCCCOc1cc(/C=C/C(=O)c2ccccc2OC)ncc1OC [Ex. 98, Ethyl 8-[5-methoxy-2-(3-(2-methoxyphenyl)-3-oxo-1-propenyl)-4-pyridyloxy]octanoate hydrochloride]
inhibition at 100 mg/kg (IgM production): -2.6% | effects on the production of IgM (IgM production): No effects were observed | inhibition at 100 mg/kg (IgE production): 50.1% | inhibition at 1 µM (IL-5 production): 96.8% | inhibition at 100 mg/kg (IgG1 production): 5.4% | effects on the production of IgG1 (IgG1 production): No effects were observed | inhibition at 100 mg/kg (IgG2a production): -4.1% | effects on the production of IgG2a (IgG2a production): No effects were observed | inhibition at 10 µM (IL-4 production): 100% | inhibition at 1 µM (IL-4 production): 85.6% | inhibition at 0.1 µM (IL-4 production): 76.1% | inhibition at 0.01 µM (IL-4 production): 75.7%

CCOC(=O)CCCCCOc1cc(/C=C/C(=O)c2ccccc2OC)ncc1OC [Ex. 94, Ethyl 6-[5-methoxy-2-(3-(2-methoxyphenyl)-3-oxo-1-propenyl)-4-pyridyloxy]hexanoate hydrochloride]
inhibition at 100 mg/kg (IgM production): -1.6% | effects on the production of IgM (IgM production): No effects were observed | inhibition at 100 mg/kg (IgE production): 63.4% | inhibition at 1 µM (IL-5 production): 95.2% | inhibition at 100 mg/kg (IgG1 production): 7% | effects on the production of IgG1 (IgG1 production): No effects were observed | inhibition at 100 mg/kg (IgG2a production): 2.8% | effects on the production of IgG2a (IgG2a production): No effects were observed | inhibition at 10 µM (IL-4 production): 74.4% | inhibition at 1 µM (IL-4 production): 70.4% | inhibition at 0.1 µM (IL-4 production): 66.5% | inhibition at 0.01 µM (IL-4 production): 62.3%

COc1cnc(/C=C/C(=O)c2ccccc2OC)cc1OCCCCCC(=O)O [Ex. 105, 6-[5-Methoxy-2-(3-(2-methoxyphenyl)-3-oxo-1-propenyl)-4-pyridyloxy]hexanoicacid]
inhibition at 100 mg/kg (IgM production): 0.5% | effects on the production of IgM (IgM production): No effects were observed | inhibition at 100 mg/kg (IgE production): 47.7% | inhibition at 1 µM (IL-5 production): 71% | inhibition at 100 mg/kg (IgG1 production): -4.2% | effects on the production of IgG1 (IgG1 production): No effects were observed | inhibition at 100 mg/kg (IgG2a production): -1.8% | effects on the production of IgG2a (IgG2a production): No effects were observed | inhibition at 10 µM (IL-4 production): 101% | inhibition at 1 µM (IL-4 production): 70.9% | inhibition at 0.1 µM (IL-4 production): 69.6% | inhibition at 0.01 µM (IL-4 production): 68.7%

CCOC(=O)CCCCCCOc1cc(/C=C/C(=O)c2ccccc2OC)ncc1OC [Ex. 96, Ethyl 7-[5-methoxy-2-(3-(2-methoxyphenyl)-3-oxo-1-propenyl)-4-pyridyloxy]heptanoate hydrochloride]
inhibition at 100 mg/kg (IgM production): 9.6% | effects on the production of IgM (IgM production): No effects were observed | inhibition at 100 mg/kg (IgE production): 63.2% | inhibition at 1 µM (IL-5 production): 79.8% | inhibition at 100 mg/kg (IgG1 production): 5% | effects on the production of IgG1 (IgG1 production): No effects were observed | inhibition at 100 mg/kg (IgG2a production): 8.3% | effects on the production of IgG2a (IgG2a production): No effects were observed | inhibition at 10 µM (IL-4 production): 102% | inhibition at 1 µM (IL-4 production): 76.2% | inhibition at 0.1 µM (IL-4 production): 78.6% | inhibition at 0.01 µM (IL-4 production): 78.2%

CCOC(=O)CCCCCOc1cc(/C=C/C(=O)C2CCCCC2)ncc1OC [Ex. 77, Ethyl 6-[2-(3-cyclohexyl-3-oxo-1-propenyl)-5-methoxy-4-pyridyloxy]hexanoatehydrochloride]
inhibition at 100 mg/kg (IgM production): 1.2% | effects on the production of IgM (IgM production): No effects were observed | inhibition at 100 mg/kg (IgE production): 55.8% | inhibition at 1 µM (IL-5 production): 82% | inhibition at 100 mg/kg (IgG1 production): -6.3% | effects on the production of IgG1 (IgG1 production): No effects were observed | inhibition at 100 mg/kg (IgG2a production): -3.9% | effects on the production of IgG2a (IgG2a production): No effects were observed | inhibition at 10 µM (IL-4 production): 68.6% | inhibition at 1 µM (IL-4 production): 66% | inhibition at 0.1 µM (IL-4 production): 65% | inhibition at 0.01 µM (IL-4 production): 64.5%
